Earlier results on three compounds are cited in US12502395B2, “Progestin/testosterone transdermal gel” (The Population Council, Inc., priority 2022, dated 2025).

The test system of data set [1] is androgenic, estrogenic, or glucocorticoid actions. Particulars: at up to x2000 the therapeutic levels.
For data set [2] the following is noted: most common adverse event; 100 mg/day of T.
Another data set deals with pregnancy. Particulars: weekly intramuscular injection of 200 mg/week for 12 months.

For `C=C1C[C@H]2[C@@H]3CCC4=CC(=O)CC[C@@H]4[C@H]3CC[C@]2(C)[C@@]1(OC(C)=O)C(C)=O` [NES, 16-methylene-17α-acetoxy-19-norpregn-4-ene-3,20-dione], in data set [1], the “Androgenic, estrogenic, or glucocorticoid actions” value is “does not carry androgenic, estrogenic, or glucocorticoid actions”.

Take `C[C@]12CC[C@H]3[C@@H](CCC4=CC(=O)CC[C@@]43C)[C@@H]1CC[C@@H]2O` [T, Testosterone]: the “Acne, % of subjects” value in data set [2] is reported as 21%.

`CCCCCCC(=O)O[C@H]1CC[C@H]2[C@@H]3CCC4=CC(=O)CC[C@]4(C)[C@H]3CC[C@]12C` [testosterone enanthate]: the Pregnancy rate in the data set on pregnancy is recorded as 0.8 pregnancy per 100 person-years of exposure.
